Experimental data from EP4603105A1, “PHARMACEUTICAL COMPOSITION CONTAINING CYCLIC COMPOUND HAVING SELECTIVE KRAS INHIBITORY EFFECT AGAINST HRAS AND NRAS” (CHUGAI SEIYAKU KABUSHIKI KAISHA, priority 2022, dated 2024).
Where a SMILES comes first, the peptide text is derived from it. Bridges are numbered along the chain shown (N, C = ends). [ ]: non-standard residue; d: D form. The star is where a group is joined. hPhe(3-Cl-4-CF3) = N[C@@H](CCc1ccc(C(F)(F)F)c(Cl)c1)C(=O)O; NEtPhe(4-CF3) = CCN[C@@H](Cc1ccc(C(F)(F)F)cc1)C(=O)O; NMeGly(cPent) = CN[C@H](C(=O)O)C1CCCC1; NMeD = CN[C@@H](CC(=O)O)C(=O)O; NMeL = CN[C@@H](CC(C)C)C(=O)O; Morpholide = C1CN(*)CCO1; Ac3c = NC1(C(=O)O)CC1; Sar = CNCC(=O)O

Experiments:
[1] = molecular target: GDP-bound KRAS wild-type protein (Homo sapiens, UniProt P01116); assay: Binding to KRAS by surface plasmon resonance (SPR), dissociation constant KD; settings: 1:1 binding model
Summary of the method: (§1)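 Compound binding is evaluated by SPR single-cycle kinetics, with concentrations added intermittently from low to high for 75 s each. Target surfaces carry GDP-loaded biotinylated Avi-RAS at about 100–300 RU, regenerated after each cycle; temperature 30°C. A 1:1 binding model gives KD.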

[2] = molecular target: GDP-bound NRAS wild-type protein (Homo sapiens, UniProt P01111); assay: Binding to NRAS by surface plasmon resonance (SPR), KD and KD ratio to KRAS
Summary of the method: as §1

HRAS wild-type protein = HRAS wild-type protein (Homo sapiens, UniProt P01112); assay: Binding to HRAS by surface plasmon resonance (SPR), KD and KD ratio to KRAS
Summary of the method: as §1

[3] = tested on: human lung cancer strain NCI-H441; format: cell-based
Summary of the method: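 Proliferation was scored by […] measured after the reagent was added to cultures kept at 37°C in 5% carbon dioxide.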

[4] = ratio of KD for GDP-bound NRAS wild-type protein to KD for KRAS
[5] = ratio of KD for HRAS wild-type protein to KD for KRAS

Chain of GDP-bound KRAS wild-type protein (P01116 1-188 isoform P01116-2): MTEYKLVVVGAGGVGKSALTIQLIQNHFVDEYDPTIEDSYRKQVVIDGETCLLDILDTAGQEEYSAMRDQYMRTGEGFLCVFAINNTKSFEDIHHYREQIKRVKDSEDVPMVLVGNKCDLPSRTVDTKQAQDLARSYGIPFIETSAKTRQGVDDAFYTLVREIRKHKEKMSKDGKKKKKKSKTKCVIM
Chain of GDP-bound NRAS wild-type protein (P01111 whole entry): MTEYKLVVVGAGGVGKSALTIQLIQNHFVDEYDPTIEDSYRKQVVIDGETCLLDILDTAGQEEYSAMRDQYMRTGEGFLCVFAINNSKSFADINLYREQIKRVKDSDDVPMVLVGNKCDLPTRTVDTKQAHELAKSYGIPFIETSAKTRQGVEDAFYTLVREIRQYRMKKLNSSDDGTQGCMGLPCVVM
Chain of HRAS wild-type protein (P01112 whole entry): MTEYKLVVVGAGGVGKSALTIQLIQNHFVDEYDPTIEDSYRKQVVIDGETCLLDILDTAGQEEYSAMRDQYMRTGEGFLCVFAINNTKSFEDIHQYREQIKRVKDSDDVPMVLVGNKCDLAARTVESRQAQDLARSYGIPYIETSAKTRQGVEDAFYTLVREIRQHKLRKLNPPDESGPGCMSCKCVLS

| SMILES | Kd ([1]; Single Cycle Kinetics) | IC50 [3] | Kd [1] | NRAS /KRAS ([2]; ratio of KD value for GDP-bound NRAS wild-type protein to KD value for KRAS (SPR)) | HRAS /KRAS (HRAS wild-type protein; ratio of KD value for HRAS wild-type protein to KD value for KRAS (SPR)) | NRAS /KRAS [2, 4] | HRAS /KRAS (HRAS wild-type protein; [5]) |
| --- | --- | --- | --- | --- | --- | --- | --- |
| CCCOC[C@H]1C(=O)N[C@@H]([C@@H](C)CC)C(=O)N(C)CC(=O)N(C)[C@H]2C/C=C\CCN(C2=O)[C@@H](Cc2ccc(C)cc2)C(=O)N(C)CC(=O)N[C@@H](CCc2cc(F)c(C(F)(F)F)c(F)c2)C(=O)N2C[C@H](OCC)C[C@H]2C(=O)NC2(CC(C)(C)C2)C(=O)N(C)[C@@H](C2CCCC2)C(=O)N(C)[C@H](C(=O)N(CC)CC)CC(=O)N1C [PP1578] | 0.2 nM | 12.6 nM | – | A (a compound having 10 or more and less than 20 is denoted as A) | A (a compound having 10 or more and less than 20 is denoted as A) | – | – |
| CCC[C@H]1C(=O)N[C@@H]([C@@H](C)CC)C(=O)N(C)CC(=O)N(C)[C@H]2C/C=C\CCN(C2=O)[C@@H](Cc2ccc(C)cc2)C(=O)N(C)CC(=O)N[C@@H](CCc2ccc3c(C)cn(C)c3c2)C(=O)N2C[C@H](OCC)C[C@H]2C(=O)NC2(CC(C)(C)C2)C(=O)N(C)[C@@H](C(CC)CC)C(=O)N(C)[C@H](C(=O)N(C)C)CC(=O)N1C [PP2910] | – | 39.8 nM | 3 nM | – | – | AA (a compound having 20 or more is denoted as AA) | A (a compound having 10 or more and less than 20 is denoted as A) |
| CCC(CC)[C@H]1C(=O)N(C)[C@H](C(=O)N(C)C)CC(=O)N(C)[C@@H](COC)C(=O)N[C@@H]([C@@H](C)CC)C(=O)N(C)CC(=O)N(C)[C@H]2C/C=C\CCN(C2=O)[C@@H](Cc2ccc(C)cc2)C(=O)N(C)CC(=O)N[C@@H](CCc2cc(F)c(C(F)(F)F)c(F)c2)C(=O)N2CCCC[C@H]2C(=O)NC2(CC(C)(C)C2)C(=O)N1C [PP2922] | – | 55.4 nM | 1.1 nM | – | – | AA (a compound having 20 or more is denoted as AA) | A (a compound having 10 or more and less than 20 is denoted as A) |
| CC[C@H](C)[C@@H]1NC(=O)[C@H](CC(C)C)N(C)C(=O)C[C@@H](C(=O)N2CCOCC2)N(C)C(=O)[C@H](C2CCCC2)N(C)C(=O)C2(CC2)NC(=O)[C@@H]2CCCN2C(=O)[C@H](CCc2ccc(C(F)(F)F)c(Cl)c2)NC(=O)CN(C)C(=O)[C@H](Cc2ccc(C(F)(F)F)cc2)N(CC)C(=O)CN(C)C(=O)CN(C)C1=O [PP0234] ([NMeL]I[Sar][Sar][NEtPhe(4-CF3)][Sar][hPhe(3-Cl-4-CF3)]P[Ac3c][NMeGly(cPent)][NMeD]-Morpholide; lactam N-11) | – | 49.9 nM | 0.49 nM | – | – | B (a compound having 3 or more and less than 10 is denoted as B) | C (A compound having a KD ratio of 0.1 or more and less than 3 is denoted as C) |

Further lines, with some results ahead:

| Kd ([1]; Single Cycle Kinetics) | IC50 [3] | Kd [1] | SMILES | NRAS /KRAS ([2]; ratio of KD value for GDP-bound NRAS wild-type protein to KD value for KRAS (SPR)) | HRAS /KRAS (HRAS wild-type protein; ratio of KD value for HRAS wild-type protein to KD value for KRAS (SPR)) | NRAS /KRAS [2, 4] | HRAS /KRAS (HRAS wild-type protein; [5]) |
| --- | --- | --- | --- | --- | --- | --- | --- |
| – | 12.9 nM | 0.32 nM | CCC[C@H]1C(=O)N[C@@H]([C@@H](C)CC)C(=O)N(C)CC(=O)N(C)[C@H]2C/C=C\CCN(C2=O)[C@@H](Cc2ccc(C)cc2)C(=O)N(C)CC(=O)N[C@@H](CCc2cc(F)c(C(F)(F)F)c(F)c2)C(=O)N2C[C@H](OCC)C[C@H]2C(=O)NC2(CC(C)(C)C2)C(=O)N(C)[C@@H](CC(C)C)C(=O)N(C)[C@H](C(=O)N(C)C)CC(=O)N1C [PP2995] | – | – | A (a compound having 10 or more and less than 20 is denoted as A) | A (a compound having 10 or more and less than 20 is denoted as A) |
| – | 29.7 nM | 0.53 nM | CCC[C@H]1C(=O)N[C@@H]([C@@H](C)CC)C(=O)N(C)CC(=O)N(C)[C@H]2C/C=C\CCN(C2=O)[C@@H](Cc2ccc(C)cc2)C(=O)N(C)CC(=O)N[C@@H](CCc2ccc(C(F)(F)F)c(OC)c2)C(=O)N2CC3(CC3)C[C@H]2C(=O)NC2(CC(C)(C)C2)C(=O)N(C)[C@@H](CC(C)C)C(=O)N(C)[C@H](C(=O)N(C)C)CC(=O)N1C [PP3013] | – | – | AA (a compound having 20 or more is denoted as AA) | B (a compound having 3 or more and less than 10 is denoted as B) |
